Test results reported in ChEMBL document CHEMBL5223127, “Fragment-based discovery of novel phenyltriazolyl derivatives as allosteric type-I1/2 ALK inhibitors with promising antitumor effects” (Bioorg Med Chem Lett, 2022).

Tested on: KARPAS-299
Assay: Antiproliferative activity against human KARPAS-299 cells by MTT assay
Conditions: not given

SMILES | IC50 [nM]
O=C(Nc1cccc(-n2cc(CNc3ccc(N4CC(O)C4)c(C(=O)N4CCCCC4)c3)nn2)c1)c1cc(F)cc(F)c1 | 55
O=C(Nc1cccc(-n2cc(CNc3ccc(NCCO)c(C(=O)N4CCOCC4)c3)nn2)c1)c1cc(F)cc(F)c1 | 1540
CN(C)C(=O)c1cc(NCc2cn(-c3cccc(NC(=O)c4cc(F)cc(F)c4)c3)nn2)ccc1N1CCC(O)CC1 | 62
CN(C)C(=O)c1cc(NCc2cn(-c3cccc(NC(=O)c4cc(F)cc(F)c4)c3)nn2)ccc1N1CCCCC1 | 157
CN(C)c1ccc(NCc2cn(-c3cccc(NC(=O)c4cc(F)cc(F)c4)c3)nn2)cc1C(=O)N1CCCC1 | 511
CN(C)C(=O)c1cc(NCc2cn(-c3cccc(NC(=O)c4cc(F)cc(F)c4)c3)nn2)ccc1N(C)C | 356

Continued, values first:

IC50 [nM] | SMILES
272 | O=C(Nc1cccc(-n2cc(CNc3ccc(N4CCCCC4)c(C(=O)N4CCCCC4)c3)nn2)c1)c1cc(F)cc(F)c1
452 | CN1CCN(c2ccc(NCc3cn(-c4cccc(NC(=O)c5cc(F)cc(F)c5)c4)nn3)cc2C(=O)N2CCOCC2)CC1
1910 | O=C(Nc1cccc(-n2cc(CNc3ccc(N4CCCCC4)c(C(=O)N4CCOCC4)c3)nn2)c1)c1cc(F)cc(F)c1
91 | CN1CCN(c2ccc(NCc3cn(-c4cccc(NC(=O)c5cc(F)cc(F)c5)c4)nn3)cc2C(=O)N2CCCCC2)CC1
51 | O=C(Nc1cccc(-n2cc(CNc3ccc(N4CCC(O)CC4)c(C(=O)N4CCCC4)c3)nn2)c1)c1cc(F)cc(F)c1
240 | CC1CCN(c2ccc(NCc3cn(-c4cccc(NC(=O)c5cc(F)cc(F)c5)c4)nn3)cc2C(=O)N2CCCCC2)CC1
232 | O=C(Nc1cccc(-n2cc(CNc3ccc(N4CCCCC4)c(C(=O)N4CCCC4)c3)nn2)c1)c1cc(F)cc(F)c1

Tested on: NCI-H2228
Assay: Antiproliferative activity against human NCI-H2228 cells by MTT assay
Conditions: not given

SMILES | IC50 [nM]
O=C(Nc1cccc(-n2cc(CNc3ccc(N4CC(O)C4)c(C(=O)N4CCCCC4)c3)nn2)c1)c1cc(F)cc(F)c1 | 193
O=C(Nc1cccc(-n2cc(CNc3ccc(NCCO)c(C(=O)N4CCOCC4)c3)nn2)c1)c1cc(F)cc(F)c1 | 6940
CN(C)C(=O)c1cc(NCc2cn(-c3cccc(NC(=O)c4cc(F)cc(F)c4)c3)nn2)ccc1N1CCC(O)CC1 | 198
CN(C)C(=O)c1cc(NCc2cn(-c3cccc(NC(=O)c4cc(F)cc(F)c4)c3)nn2)ccc1N1CCCCC1 | 760
CN(C)c1ccc(NCc2cn(-c3cccc(NC(=O)c4cc(F)cc(F)c4)c3)nn2)cc1C(=O)N1CCCC1 | 2690
CN(C)C(=O)c1cc(NCc2cn(-c3cccc(NC(=O)c4cc(F)cc(F)c4)c3)nn2)ccc1N(C)C | 1610

The remaining lines, values ahead:

IC50 [nM] | SMILES
1020 | O=C(Nc1cccc(-n2cc(CNc3ccc(N4CCCCC4)c(C(=O)N4CCCCC4)c3)nn2)c1)c1cc(F)cc(F)c1
1980 | CN1CCN(c2ccc(NCc3cn(-c4cccc(NC(=O)c5cc(F)cc(F)c5)c4)nn3)cc2C(=O)N2CCOCC2)CC1
7520 | O=C(Nc1cccc(-n2cc(CNc3ccc(N4CCCCC4)c(C(=O)N4CCOCC4)c3)nn2)c1)c1cc(F)cc(F)c1
387 | CN1CCN(c2ccc(NCc3cn(-c4cccc(NC(=O)c5cc(F)cc(F)c5)c4)nn3)cc2C(=O)N2CCCCC2)CC1
175 | O=C(Nc1cccc(-n2cc(CNc3ccc(N4CCC(O)CC4)c(C(=O)N4CCCC4)c3)nn2)c1)c1cc(F)cc(F)c1
1030 | CC1CCN(c2ccc(NCc3cn(-c4cccc(NC(=O)c5cc(F)cc(F)c5)c4)nn3)cc2C(=O)N2CCCCC2)CC1
991 | O=C(Nc1cccc(-n2cc(CNc3ccc(N4CCCCC4)c(C(=O)N4CCCC4)c3)nn2)c1)c1cc(F)cc(F)c1

Biological target: ALK tyrosine kinase receptor (Homo sapiens, UniProt Q9UM73)
Assay: Inhibition of wild type ALK (unknown origin)
Conditions: not given

IC50 [nM] | SMILES
5.8 | O=C(Nc1cccc(-n2cc(CNc3ccc(N4CC(O)C4)c(C(=O)N4CCCCC4)c3)nn2)c1)c1cc(F)cc(F)c1
3.7 | O=C(Nc1cccc(-n2cc(CNc3ccc(N4CCC(O)CC4)c(C(=O)N4CCCC4)c3)nn2)c1)c1cc(F)cc(F)c1

Biological target: ALK tyrosine kinase receptor (Homo sapiens, UniProt Q9UM73, L1196M)
Sequence (Q9UM73 19-1620 L1196M limits assumed): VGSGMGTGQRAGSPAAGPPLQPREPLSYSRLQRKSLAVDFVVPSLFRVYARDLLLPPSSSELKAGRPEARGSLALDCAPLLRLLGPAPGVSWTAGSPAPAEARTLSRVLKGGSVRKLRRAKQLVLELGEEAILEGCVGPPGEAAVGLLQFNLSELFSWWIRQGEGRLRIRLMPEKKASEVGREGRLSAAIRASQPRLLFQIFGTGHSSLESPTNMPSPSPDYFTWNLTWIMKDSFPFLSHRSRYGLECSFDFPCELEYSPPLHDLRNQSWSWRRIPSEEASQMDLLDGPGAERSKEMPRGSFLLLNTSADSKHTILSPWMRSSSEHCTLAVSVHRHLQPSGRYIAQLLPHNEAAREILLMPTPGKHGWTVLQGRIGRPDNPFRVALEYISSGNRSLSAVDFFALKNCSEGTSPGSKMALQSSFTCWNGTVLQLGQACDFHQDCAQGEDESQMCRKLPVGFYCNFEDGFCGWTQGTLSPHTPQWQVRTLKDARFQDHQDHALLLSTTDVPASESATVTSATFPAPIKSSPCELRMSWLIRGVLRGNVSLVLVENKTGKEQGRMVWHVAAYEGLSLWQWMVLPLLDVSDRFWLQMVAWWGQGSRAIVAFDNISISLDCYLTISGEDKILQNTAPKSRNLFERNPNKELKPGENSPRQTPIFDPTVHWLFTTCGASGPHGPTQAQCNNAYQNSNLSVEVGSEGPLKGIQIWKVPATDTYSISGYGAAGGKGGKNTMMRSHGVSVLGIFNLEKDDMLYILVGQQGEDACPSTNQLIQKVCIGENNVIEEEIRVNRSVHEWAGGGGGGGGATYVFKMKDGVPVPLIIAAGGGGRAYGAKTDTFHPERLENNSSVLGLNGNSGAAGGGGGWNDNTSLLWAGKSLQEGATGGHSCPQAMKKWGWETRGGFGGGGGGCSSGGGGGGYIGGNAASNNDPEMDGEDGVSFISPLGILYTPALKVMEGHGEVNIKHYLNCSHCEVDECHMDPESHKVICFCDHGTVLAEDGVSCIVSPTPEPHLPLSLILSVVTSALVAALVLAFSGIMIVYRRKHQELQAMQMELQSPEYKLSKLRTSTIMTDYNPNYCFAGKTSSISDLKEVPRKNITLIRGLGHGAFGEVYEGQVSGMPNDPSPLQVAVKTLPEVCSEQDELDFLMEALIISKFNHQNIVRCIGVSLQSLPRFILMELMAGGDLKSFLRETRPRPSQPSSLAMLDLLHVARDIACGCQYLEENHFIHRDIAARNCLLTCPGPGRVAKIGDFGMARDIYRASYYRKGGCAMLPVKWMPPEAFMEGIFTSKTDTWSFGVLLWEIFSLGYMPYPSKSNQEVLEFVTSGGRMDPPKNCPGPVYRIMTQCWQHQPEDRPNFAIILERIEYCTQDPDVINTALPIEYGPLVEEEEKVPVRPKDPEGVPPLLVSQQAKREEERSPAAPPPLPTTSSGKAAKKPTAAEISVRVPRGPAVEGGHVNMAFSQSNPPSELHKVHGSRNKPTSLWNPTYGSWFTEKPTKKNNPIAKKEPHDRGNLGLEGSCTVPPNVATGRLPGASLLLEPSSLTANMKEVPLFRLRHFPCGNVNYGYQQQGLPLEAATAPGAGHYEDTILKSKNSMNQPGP
Assay: Inhibition of ALK L1196M mutant (unknown origin)
Conditions: not given

IC50 [nM] | SMILES
12.9 | O=C(Nc1cccc(-n2cc(CNc3ccc(N4CC(O)C4)c(C(=O)N4CCCCC4)c3)nn2)c1)c1cc(F)cc(F)c1
6.8 | O=C(Nc1cccc(-n2cc(CNc3ccc(N4CCC(O)CC4)c(C(=O)N4CCCC4)c3)nn2)c1)c1cc(F)cc(F)c1

Biological target: Epidermal growth factor receptor (Homo sapiens, UniProt P00533)
Sequence (P00533 whole entry): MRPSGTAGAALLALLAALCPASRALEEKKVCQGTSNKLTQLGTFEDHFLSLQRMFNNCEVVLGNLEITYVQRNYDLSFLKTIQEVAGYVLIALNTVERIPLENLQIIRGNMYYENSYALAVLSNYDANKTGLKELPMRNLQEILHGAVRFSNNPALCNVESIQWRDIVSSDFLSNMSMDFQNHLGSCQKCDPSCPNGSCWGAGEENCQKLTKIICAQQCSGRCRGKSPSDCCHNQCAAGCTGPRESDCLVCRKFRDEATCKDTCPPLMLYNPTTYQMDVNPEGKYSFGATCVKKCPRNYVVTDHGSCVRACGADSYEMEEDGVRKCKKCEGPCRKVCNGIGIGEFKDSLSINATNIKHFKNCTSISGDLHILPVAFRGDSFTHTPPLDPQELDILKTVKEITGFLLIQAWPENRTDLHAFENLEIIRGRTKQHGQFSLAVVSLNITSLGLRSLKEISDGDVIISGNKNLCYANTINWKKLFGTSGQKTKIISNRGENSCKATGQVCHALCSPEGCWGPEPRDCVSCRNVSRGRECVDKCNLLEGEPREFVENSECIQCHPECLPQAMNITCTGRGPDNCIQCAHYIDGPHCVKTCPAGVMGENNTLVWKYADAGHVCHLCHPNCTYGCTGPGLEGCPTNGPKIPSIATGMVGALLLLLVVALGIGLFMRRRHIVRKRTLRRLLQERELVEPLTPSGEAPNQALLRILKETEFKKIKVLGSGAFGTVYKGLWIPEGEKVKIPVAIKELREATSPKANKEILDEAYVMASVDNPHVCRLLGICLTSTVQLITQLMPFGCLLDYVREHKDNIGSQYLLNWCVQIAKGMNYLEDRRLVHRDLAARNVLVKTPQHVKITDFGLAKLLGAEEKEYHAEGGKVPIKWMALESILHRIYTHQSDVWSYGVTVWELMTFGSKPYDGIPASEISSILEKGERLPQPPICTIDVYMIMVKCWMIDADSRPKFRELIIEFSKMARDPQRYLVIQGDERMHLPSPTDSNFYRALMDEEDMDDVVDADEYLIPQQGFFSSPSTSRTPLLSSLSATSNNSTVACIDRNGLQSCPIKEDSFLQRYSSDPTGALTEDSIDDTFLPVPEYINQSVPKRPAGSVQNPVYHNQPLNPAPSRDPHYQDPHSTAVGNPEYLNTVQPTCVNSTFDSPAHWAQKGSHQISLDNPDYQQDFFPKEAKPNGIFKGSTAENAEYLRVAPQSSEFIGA
Assay: Inhibition of EGFR (unknown origin)
Conditions: not given

IC50 [nM] | SMILES
> 1000 | O=C(Nc1cccc(-n2cc(CNc3ccc(N4CC(O)C4)c(C(=O)N4CCCCC4)c3)nn2)c1)c1cc(F)cc(F)c1
> 1000 | O=C(Nc1cccc(-n2cc(CNc3ccc(N4CCC(O)CC4)c(C(=O)N4CCCC4)c3)nn2)c1)c1cc(F)cc(F)c1

Biological target: Hepatocyte growth factor receptor (Homo sapiens, UniProt P08581)
Sequence (P08581 whole entry): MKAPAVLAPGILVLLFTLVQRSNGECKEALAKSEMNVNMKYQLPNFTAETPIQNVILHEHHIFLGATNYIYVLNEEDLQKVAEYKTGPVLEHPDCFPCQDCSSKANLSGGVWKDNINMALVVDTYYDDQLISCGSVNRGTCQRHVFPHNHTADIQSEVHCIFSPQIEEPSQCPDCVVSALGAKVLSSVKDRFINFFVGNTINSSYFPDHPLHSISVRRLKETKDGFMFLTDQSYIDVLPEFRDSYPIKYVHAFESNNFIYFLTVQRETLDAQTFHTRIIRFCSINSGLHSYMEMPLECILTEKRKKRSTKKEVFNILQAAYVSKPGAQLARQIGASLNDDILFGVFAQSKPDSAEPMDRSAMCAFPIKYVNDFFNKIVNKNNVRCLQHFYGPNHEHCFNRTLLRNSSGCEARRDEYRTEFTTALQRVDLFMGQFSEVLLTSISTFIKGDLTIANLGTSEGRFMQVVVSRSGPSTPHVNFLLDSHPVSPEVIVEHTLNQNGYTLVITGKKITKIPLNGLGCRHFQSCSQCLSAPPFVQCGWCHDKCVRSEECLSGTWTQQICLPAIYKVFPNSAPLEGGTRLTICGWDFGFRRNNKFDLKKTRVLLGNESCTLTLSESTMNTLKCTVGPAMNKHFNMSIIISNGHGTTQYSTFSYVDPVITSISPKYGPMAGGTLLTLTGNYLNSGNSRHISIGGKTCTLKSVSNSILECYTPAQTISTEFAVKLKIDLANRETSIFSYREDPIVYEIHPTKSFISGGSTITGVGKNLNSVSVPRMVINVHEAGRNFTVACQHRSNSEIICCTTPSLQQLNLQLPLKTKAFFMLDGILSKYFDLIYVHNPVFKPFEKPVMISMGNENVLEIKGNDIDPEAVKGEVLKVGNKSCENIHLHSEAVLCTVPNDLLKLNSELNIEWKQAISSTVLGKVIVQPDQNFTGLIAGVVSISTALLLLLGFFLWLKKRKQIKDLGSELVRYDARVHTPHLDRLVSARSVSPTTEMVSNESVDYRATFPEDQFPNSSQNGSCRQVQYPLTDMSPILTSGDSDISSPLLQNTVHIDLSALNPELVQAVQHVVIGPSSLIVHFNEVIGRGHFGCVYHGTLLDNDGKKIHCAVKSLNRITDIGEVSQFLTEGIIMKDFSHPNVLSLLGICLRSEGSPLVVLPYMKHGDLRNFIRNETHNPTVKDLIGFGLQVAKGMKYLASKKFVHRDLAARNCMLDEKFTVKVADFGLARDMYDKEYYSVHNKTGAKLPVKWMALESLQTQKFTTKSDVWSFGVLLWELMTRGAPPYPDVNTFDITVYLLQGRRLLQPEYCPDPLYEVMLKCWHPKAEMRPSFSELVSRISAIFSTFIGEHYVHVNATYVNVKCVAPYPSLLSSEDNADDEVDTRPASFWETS
Assay: Inhibition of c-MET (unknown origin)
Conditions: not given

IC50 [nM] | SMILES
796 | O=C(Nc1cccc(-n2cc(CNc3ccc(N4CC(O)C4)c(C(=O)N4CCCCC4)c3)nn2)c1)c1cc(F)cc(F)c1
> 1000 | O=C(Nc1cccc(-n2cc(CNc3ccc(N4CCC(O)CC4)c(C(=O)N4CCCC4)c3)nn2)c1)c1cc(F)cc(F)c1

Tested on: NCI-H2228
Assay: Induction of apoptosis in human NCI-H2228 cells assessed as nuclear contraction incubated for 24 hrs by Hoechst 33342 staining based fluorescence microscopy assay
Type: functional, cell-based
Conditions: dose 25-100 nM

SMILES | Activity
O=C(Nc1cccc(-n2cc(CNc3ccc(N4CCC(O)CC4)c(C(=O)N4CCCC4)c3)nn2)c1)c1cc(F)cc(F)c1 | Dose-Dependent Effect

Tested on: NCI-H2228
Assay: Induction of apoptosis in human NCI-H2228 cells assessed as nuclear fragmentation incubated for 24 hrs by Hoechst 33342 staining based fluorescence microscopy assay
Type: functional, cell-based
Conditions: dose 25-100 nM

SMILES | Activity
O=C(Nc1cccc(-n2cc(CNc3ccc(N4CCC(O)CC4)c(C(=O)N4CCCC4)c3)nn2)c1)c1cc(F)cc(F)c1 | Dose-Dependent Effect

Tested on: NCI-H2228
Assay: Inhibition of colony formation in human NCI-H2228 cells incubated for 24 hrs
Type: functional, cell-based
Conditions: dose 0.25-1 µM

SMILES | inhibition
O=C(Nc1cccc(-n2cc(CNc3ccc(N4CCC(O)CC4)c(C(=O)N4CCCC4)c3)nn2)c1)c1cc(F)cc(F)c1 | Dose-Dependent Effect

Tested on: NCI-H2228
Assay: Inhibition of colony formation in human NCI-H2228 cells at 1 uM incubated for 24 hrs
Type: functional
Conditions: not given

SMILES | inhibition at 1 µM [%]
O=C(Nc1cccc(-n2cc(CNc3ccc(N4CCC(O)CC4)c(C(=O)N4CCCC4)c3)nn2)c1)c1cc(F)cc(F)c1 | 100

Tested on: NCI-H2228
Assay: Antimigratory activity against human NCI-H2228 cells incubated for 48 hrs by wound healing assay
Type: functional, cell-based
Conditions: dose 12.5-50 nM

SMILES | Activity
O=C(Nc1cccc(-n2cc(CNc3ccc(N4CCC(O)CC4)c(C(=O)N4CCCC4)c3)nn2)c1)c1cc(F)cc(F)c1 | Dose-Dependent Effect

Tested on: A549
Assay: cells
Conditions: Homo sapiens
Description: Antiproliferative activity against human A549 cells by MTT assay

SMILES | IC50 [nM]
O=C(Nc1cccc(-n2cc(CNc3ccc(N4CC(O)C4)c(C(=O)N4CCCCC4)c3)nn2)c1)c1cc(F)cc(F)c1 | > 10000
O=C(Nc1cccc(-n2cc(CNc3ccc(NCCO)c(C(=O)N4CCOCC4)c3)nn2)c1)c1cc(F)cc(F)c1 | > 10000
CN(C)C(=O)c1cc(NCc2cn(-c3cccc(NC(=O)c4cc(F)cc(F)c4)c3)nn2)ccc1N1CCC(O)CC1 | 2050
CN(C)C(=O)c1cc(NCc2cn(-c3cccc(NC(=O)c4cc(F)cc(F)c4)c3)nn2)ccc1N1CCCCC1 | 4120
CN(C)c1ccc(NCc2cn(-c3cccc(NC(=O)c4cc(F)cc(F)c4)c3)nn2)cc1C(=O)N1CCCC1 | > 10000
CN(C)C(=O)c1cc(NCc2cn(-c3cccc(NC(=O)c4cc(F)cc(F)c4)c3)nn2)ccc1N(C)C | 4930

The next lines start with the values.

IC50 [nM] | SMILES
> 10000 | O=C(Nc1cccc(-n2cc(CNc3ccc(N4CCCCC4)c(C(=O)N4CCCCC4)c3)nn2)c1)c1cc(F)cc(F)c1
> 10000 | CN1CCN(c2ccc(NCc3cn(-c4cccc(NC(=O)c5cc(F)cc(F)c5)c4)nn3)cc2C(=O)N2CCOCC2)CC1
> 10000 | O=C(Nc1cccc(-n2cc(CNc3ccc(N4CCCCC4)c(C(=O)N4CCOCC4)c3)nn2)c1)c1cc(F)cc(F)c1
> 10000 | CN1CCN(c2ccc(NCc3cn(-c4cccc(NC(=O)c5cc(F)cc(F)c5)c4)nn3)cc2C(=O)N2CCCCC2)CC1
> 10000 | O=C(Nc1cccc(-n2cc(CNc3ccc(N4CCC(O)CC4)c(C(=O)N4CCCC4)c3)nn2)c1)c1cc(F)cc(F)c1
> 10000 | CC1CCN(c2ccc(NCc3cn(-c4cccc(NC(=O)c5cc(F)cc(F)c5)c4)nn3)cc2C(=O)N2CCCCC2)CC1
> 10000 | O=C(Nc1cccc(-n2cc(CNc3ccc(N4CCCCC4)c(C(=O)N4CCCC4)c3)nn2)c1)c1cc(F)cc(F)c1
